The target in test [1] is T1, myeloperoxidase (Homo sapiens, UniProt P05164).
T1 sequence (P05164 49-745): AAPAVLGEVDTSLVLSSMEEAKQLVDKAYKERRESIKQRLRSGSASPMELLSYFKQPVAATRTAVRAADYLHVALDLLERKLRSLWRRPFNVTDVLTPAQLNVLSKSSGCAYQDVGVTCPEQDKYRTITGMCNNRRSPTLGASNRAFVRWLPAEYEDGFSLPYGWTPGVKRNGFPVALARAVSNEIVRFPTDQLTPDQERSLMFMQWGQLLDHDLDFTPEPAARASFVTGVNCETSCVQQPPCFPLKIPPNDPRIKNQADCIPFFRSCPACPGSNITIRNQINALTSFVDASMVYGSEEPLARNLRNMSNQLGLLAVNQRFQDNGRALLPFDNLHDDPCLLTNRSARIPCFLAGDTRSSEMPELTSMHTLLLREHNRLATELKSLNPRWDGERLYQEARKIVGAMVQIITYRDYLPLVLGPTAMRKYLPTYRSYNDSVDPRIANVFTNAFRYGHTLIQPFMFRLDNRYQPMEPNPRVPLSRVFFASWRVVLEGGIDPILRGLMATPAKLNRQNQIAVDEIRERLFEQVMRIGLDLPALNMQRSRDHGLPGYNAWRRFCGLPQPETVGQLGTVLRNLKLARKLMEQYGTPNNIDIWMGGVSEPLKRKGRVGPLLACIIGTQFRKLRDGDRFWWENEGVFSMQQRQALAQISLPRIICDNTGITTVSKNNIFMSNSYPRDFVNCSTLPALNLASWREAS
Kind of test: MPO Peroxidation Assay (Amplex Red Assay). It is filed as biochemical. The settings on record: potency range class.

Test [2] has as its target T1, myeloperoxidase. Nature of the test: MPO Chlorination Assay (APF Assay). Type of test: biochemical. The settings on record: potency range class, read-out: APF Assay IC50 value.
[3] abbreviates: read-out: Amplex Red Assay IC50 value.

`CC1(NCCC(c2ccccc2)c2cc(N)nc3[nH]nnc23)CCC(c2ccccc2)CC1` (mixture of isomers) [Example 143, 7-{3-[(1-methyl-4-phenylcyclohexyl)amino]-1-phenylpropyl}-3H-[1,2,3]triazolo[4,5-b]pyridin-5-amine]: the IC50 (in general, the concentration at which inhibition is half-maximal) at myeloperoxidase [1] (setting [3]) was 0.101 to 0.999 µM; on myeloperoxidase [2], 101 to 999 nM. In the case of `CC(c1ccccc1)c1cc(N)nc2[nH]nnc12` (racemic) [Example 1, 7-(1-phenylethyl)-3H-[1,2,3]triazolo[4,5-b]pyridin-5-amine], the IC50 at myeloperoxidase [1] (setting [3]) lay in the range of 0.001 to 0.1 µM. On to `CC(c1cccc(F)c1)c1cc(N)nc2[nH]nnc12` (racemic) [Example 30, 7-(1-(3-fluorophenyl)ethyl)-3H-[1,2,3]triazolo[4,5-b]pyridin-5-amine], for which the IC50 on myeloperoxidase [1] (setting [3]) lay in the range of 0.001 to 0.1 µM; on myeloperoxidase [2], 101 to 999 nM.

Regarding `Nc1cc(C(Cc2ccccc2F)c2ccccc2)c2nn[nH]c2n1` (single isomer, unassigned) [Example 9, 7-(2-(2-fluorophenyl)-1-phenylethyl)-3H-[1,2,3]triazolo[4,5-b]pyridin-5-amine], the IC50 lay in the range of 0.101 to 0.999 µM at myeloperoxidase [1] (setting [3]) and 101 to 999 nM on myeloperoxidase [2]. The like results for `Nc1cc(C(Cc2ccccc2)c2ccccc2F)c2nn[nH]c2n1` (single isomer, unassigned) [Example 10, 7-(1-(2-fluorophenyl)-2-phenylethyl)-3H-[1,2,3]triazolo[4,5-b]pyridin-5-amine] were, in that order, 0.001 to 0.1 µM and 1 to 100 nM. The corresponding values for `CC(NCCC(c1ccccc1)c1cc(N)nc2[nH]nnc12)c1ccccc1` (single isomer, unassigned) [Example 12, 7-(1-phenyl-3-((1-phenylethyl)amino)propyl)-3H-[1,2,3]triazolo[4,5-b]pyridin-5-amine] are 0.101 to 0.999 µM and 101 to 999 nM.

For the compound `CC(NCCC(c1ccccc1)c1cc(N)nc2[nH]nnc12)c1ccccc1` (single isomer, unassigned) [Example 13, 7-(1-phenyl-3-((1-phenylethyl)amino)propyl)-3H-[1,2,3]triazolo[4,5-b]pyridin-5-amine], the IC50 at myeloperoxidase [1] (setting [3]) was in the range of 0.101 to 0.999 µM. As for `Nc1cc(C(CCNC2CC(c3ccccc3)C2)c2ccccc2)c2nn[nH]c2n1` (single isomer, unassigned) [Example 80, 7-{1-phenyl-3-[(3-phenylcyclobutyl)amino]propyl}-3H-[1,2,3]triazolo[4,5-b] pyridin-5-amine], the IC50 fell in the range of 0.101 to 0.999 µM on myeloperoxidase [1] (setting [3]) and 1 to 100 nM at myeloperoxidase [2].

Turning to `Nc1cc(C(CCNC2CC(c3ccccc3)C2)c2ccccc2)c2nn[nH]c2n1` (single isomer, unassigned) [Example 81, 7-{1-phenyl-3-[(3-phenylcyclobutyl)amino]propyl}-3H-[1,2,3]triazolo[4,5-b] pyridin-5-amine], the IC50 was 1 to 10 µM on myeloperoxidase [1] (setting [3]) and 1 to 100 nM at myeloperoxidase [2].

For the compound `Nc1cc(C(CCOC2CCc3ccccc32)c2ccccc2)c2nn[nH]c2n1` (single isomer, unassigned) [Example 231, 7-(3-((2,3-dihydro-1H-inden-1-yl)oxy)-1-phenylpropyl)-3H-[1,2,3]triazolo[4,5-b]pyridin-5-amine], the concentration for half-maximal inhibition (IC50) was in the range of 0.101 to 0.999 µM on myeloperoxidase [1] (setting [3]) and 101 to 999 nM on myeloperoxidase [2].

Regarding `Nc1cc(C(CCOC2CCc3ccccc32)c2ccccc2)c2nn[nH]c2n1` (single isomer, unassigned) [Example 232, 7-(3-((2,3-dihydro-1H-inden-1-yl)oxy)-1-phenylpropyl)-3H-[1,2,3]triazolo[4,5-b]pyridin-5-amine], the IC50 on myeloperoxidase [1] (setting [3]) lay within 0.101 to 0.999 µM. `CN(CC[C@H](c1ccccc1)c1cc(N)nc2[nH]nnc12)[C@H]1CC[C@H](c2ccccc2)CC1` (stereo in doubt) [Example 178, 7-(3-(methyl(4-phenylcyclohexyl)amino)-1-phenylpropyl)-3H-[1,2,3]triazolo[4,5-b]pyridin-5-amine]: the results for the IC50 on myeloperoxidase [1] (setting [3]) and on myeloperoxidase [2] were 0.101 to 0.999 µM and 1 to 100 nM, respectively. On to `CCCC(c1ccccc1)c1cc(N)nc2[nH]nnc12` (centres unmarked) [Example 3, 7-(1-phenylbutyl)-3H-[1,2,3]triazolo [4,5-b]pyridin-5-amine], for which, on myeloperoxidase [1] (setting [3]), the 50% inhibitory concentration (IC50) was in the range of 0.001 to 0.1 µM. The same measure, in the same setting: next, `CC(C)CC(c1ccccc1)c1cc(N)nc2[nH]nnc12` (centres unmarked) [Example 4, 7-(3-methyl-1-phenylbutyl)-3H-[1,2,3]triazolo[4,5-b]pyridin-5-amine]: 0.101 to 0.999 µM. The same measure, in the same setting: next, `CCC(c1ccccc1)c1cc(N)nc2[nH]nnc12` (centres unmarked) [Example 5, 7-(1-phenylpropyl)-3H-[1,2,3]triazolo [4,5-b]pyridin-5-amine]: 0.101 to 0.999 µM. `Nc1cc(C(CCC2CCCCC2)c2ccccc2)c2nn[nH]c2n1` (centres unmarked) [Example 6, 7-(3-cyclohexyl-1-phenylpropyl)-3H-[1,2,3]triazolo[4,5-b]pyridin-5-amine]: the IC50 on myeloperoxidase [1] (setting [3]) was 0.101 to 0.999 µM. As for `CC(C)(NCCC(c1ccccc1)c1cc(N)nc2[nH]nnc12)c1ccccc1` (centres unmarked) [Example 14, 7-{1-phenyl-3-[(2-phenylpropan-2-yl)amino]propyl}-3H-[1,2,3]triazolo[4,5-b]pyridin-5-amine], the 50% inhibitory concentration (IC50) at myeloperoxidase [1] (setting [3]) lay within 0.101 to 0.999 µM; at myeloperoxidase [2], 101 to 999 nM. Take `Nc1cc(C(CCNC2CCCCC2)c2ccccc2)c2nn[nH]c2n1` (centres unmarked) [Example 19, 7-[3-(cyclohexylamino)-1-phenylpropyl]-3H-[1,2,3]triazolo[4,5-b] pyridin-5-amine]: at myeloperoxidase [1] (setting [3]), the IC50 is 0.101 to 0.999 µM. The same measure, in the same setting: next, `Nc1cc(C(Cc2ccccc2Cl)c2ccccc2)c2nn[nH]c2n1` (centres unmarked) [Example 31, 7-[2-(2-chlorophenyl)-1-phenylethyl]-3H-[1,2,3]triazolo [4,5-b]pyridin-5-amine]: 0.101 to 0.999 µM; `Nc1cc(C(Cc2cccc(Cl)c2)c2ccccc2)c2nn[nH]c2n1` (centres unmarked) [Example 32, 7-[2-(3-chlorophenyl)-1-phenylethyl]-3H-[1,2,3]triazolo [4,5-b]pyridin-5-amine]: 0.101 to 0.999 µM. Still for that read-out and setting: next, `Nc1cc(C(Cc2ccc(Cl)cc2)c2ccccc2)c2nn[nH]c2n1` (centres unmarked) [Example 33, 7-[2-(4-chlorophenyl)-1-phenylethyl]-3H-[1,2,3]triazolo [4,5-b]pyridin-5-amine]: 0.101 to 0.999 µM. With `COc1cccc(C(Cc2ccccc2)c2cc(N)nc3[nH]nnc23)c1` (centres unmarked) [Example 34, 7-(1-(3-methoxyphenyl)-2-phenylethyl)-3H-[1,2,3]triazolo[4,5-b]pyridin-5-amine], the IC50 against myeloperoxidase [1] (Amplex Red Assay IC50 value (μM)) was 0.101 to 0.999 µM. `Nc1cc(C(Cc2ccccc2)c2cccc(Cl)c2)c2nn[nH]c2n1` (centres unmarked) [Example 35, 7-[1-(3-chlorophenyl)-2-phenylethyl]-3H-[1,2,3]triazolo [4,5-b]pyridin-5-amine]: at myeloperoxidase [1] (setting [3]), the IC50 was 0.101 to 0.999 µM. The same measure, in the same setting: next, `Cc1cccc(C(Cc2ccccc2)c2cc(N)nc3[nH]nnc23)c1` (centres unmarked) [Example 36, 7-[1-(3-methylphenyl)-2-phenylethyl]-3H-[1,2,3]triazolo [4,5-b]pyridin-5-amine]: 0.101 to 0.999 µM; `Nc1cc(C(CCNC2CCC(c3ccc(Cl)c(Cl)c3)c3ccccc32)c2ccccc2)c2nn[nH]c2n1` (centres unmarked) [Example 122, 7-(3-{[4-(3,4-dichlorophenyl)-1,2,3,4-tetrahydronaphthalen-1-yl]amino}-1-phenylpropyl)-3H-[1,2,3]triazolo[4,5-b]pyridin-5-amine]: 0.001 to 0.1 µM. For `CC1CC(NCCC(c2ccccc2)c2cc(N)nc3[nH]nnc23)CCN1c1ccccc1` (centres unmarked) [Example 131, N-(3-{5-amino-3H-[1,2,3]triazolo[4,5-b]pyridin-7-yl}-3-phenylpropyl)-2-methyl-1-phenylpiperidin-4-amine], the IC50 at myeloperoxidase [2] lay in the range of 1 to 100 nM. Same read-out and setting: next, `COC(=O)c1cccc(C(CCN[C@H]2CC[C@H](c3ccccc3)CC2)c2cc(N)nc3[nH]nnc23)c1` (stereo partly drawn) [Example 163, methyl 3-(1-{5-amino-3H-[1,2,3]triazolo [4,5-b]pyridin-7-yl}-3-{[(trans)-4-phenylcyclohexyl]amino}propyl) benzoate]: 1 to 100 nM. Regarding `Nc1cc(C(CCO)c2ccccc2)c2nn[nH]c2n1` (centres unmarked) [Example 174, 3-{5-amino-3H-[1,2,3]triazolo [4,5-b]pyridin-7-yl}-3-phenylpropan-1-ol], the IC50 on myeloperoxidase [1] (setting [3]) lay in the range of 0.101 to 0.999 µM. Same read-out and setting: next, `Nc1cc([C@H](CCNC23CCC(c4ccccc4)(CC2)C(O)C3)c2ccccc2)c2nn[nH]c2n1` (stereo partly drawn) [Example 181, 4-{[(3R)-3-{5-amino-3H-[1,2,3]triazolo [4,5-b]pyridin-7-yl}-3-phenylpropyl]amino}-1-phenylbicyclo[2.2.2] octan-2-ol]: 0.001 to 0.1 µM. `NC(=O)CN(CC[C@H](c1ccccc1)c1cc(N)nc2[nH]nnc12)[C@H]1CC[C@H](c2ccccc2)CC1` [Example 189, 2-{[(3R)-3-{5-amino-3H-[1,2,3]triazolo [4,5-b]pyridin-7-yl}-3-phenylpropyl] [(trans)-4-phenylcyclohexyl]amino}acetamide]: the half-maximal inhibitory concentration (IC50) on myeloperoxidase [2] was in the range of 1 to 100 nM. Take `Nc1cc(C(Cc2ccc(CO)cc2)c2ccccc2)c2nn[nH]c2n1` (centres unmarked) [Example 224, (4-(2-(5-amino-3H-[1,2,3]triazolo[4,5-b]pyridin-7-yl)-2-phenylethyl)phenyl)methanol]: on myeloperoxidase [1] (setting [3]), the half-inhibitory concentration (IC50) was in the range of 0.001 to 0.1 µM.

The values above are taken from patent US11008317B2, “Triazolopyridine inhibitors of myeloperoxidase and/or EPX” (priority 2016, dated 2021).
